Assay results reported in patent publication US6737383B1, “Herbicidal oxadiazolidines” (priority 1999, dated 2004).

Columns and labels:
spring wheat [1] = assay: Test E spring wheat; assay type: in vivo, Triticum aestivum; conditions: Postemergence; for Plant response rating, Spring Wheat: 0 to 100 scale
Method in brief: (§1)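 Compounds formulated in non-phytotoxic solvent mixture with surfactant; for postemergence, sprayed on plants at 1- to 4-leaf stage grown in 60:40 sandy loam/greenhouse potting mix. Kept in greenhouse ~21 to 28 days, then visually rated against untreated controls.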

Johnson grass = assay: Test D Johnson grass; assay type: in vivo, Sorghum halepense; conditions: Postemergence, 0 to 100 scale
wild buckwheat = assay: Test E wild buckwheat; assay type: in vivo, Polygonum convolvulus; conditions: Preemergence
johnsongrass = assay: Test C postemergence johnsongrass; assay type: in vivo, Sorghum halepense; conditions: 0 to 100 scale, 0 no effect, 100 complete control
Method in brief: (§2)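 In this greenhouse assay, treated and untreated plants were kept for approximately 14 to 21 days following postemergence application, then rated by eye on a scale from 0 (no effect) to 100 (complete control).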

bermuda-grass = assay: Test D bermudagrass; assay type: in vivo, Cynodon dactylon; conditions: Postemergence, 0 to 100 scale
Green foxtail [2] = assay: Test D green foxtail; assay type: in vivo; conditions: Postemergence, 0 to 100 scale, 0 no injury, 100 complete control
scentless chamomile = assay: Test E scentless chamomile; assay type: in vivo, Matricaria inodora; conditions: Postemergence; for Plant response rating, Scentless chamo: 0 to 100 scale
Method in brief: as §1

fall panicum = assay: Test C postemergence fall panicum; assay type: in vivo, Panicum dichotomiflorum; conditions: 0 to 100 scale, 0 no effect, 100 complete control
Method in brief: as §2

spring wheat [3] = assay: Test E spring wheat; assay type: in vivo, Triticum aestivum; conditions: Preemergence
giant foxtail = assay: Test C postemergence giant foxtail; assay type: in vivo, Setaria faberii; conditions: 0 to 100 scale, 0 no effect, 100 complete control
Method in brief: as §2

Green foxtail [4] = assay: Test D green foxtail; assay type: in vivo; conditions: Postemergence, 0 to 100 scale, 0 no injury, 100 complete control; remark: listed apart in the source
common pursiane = assay: Test D common purslane; assay type: in vivo, Portulaca oleracea; conditions: Postemergence, 0 to 100 scale
deadnettle = assay: Test E deadnettle; assay type: in vivo, Lamium amplexicaule; conditions: Preemergence
cotton = assay: Test C postemergence cotton; assay type: in vivo, Gossypium hirsutum; conditions: 0 to 100 scale, 0 no effect, 100 complete control
Method in brief: as §2

barnyardgrass = assay: Test C postemergence barnyardgrass; assay type: in vivo, Echinochloa crus-galli; conditions: 0 to 100 scale, 0 no effect, 100 complete control
Method in brief: as §2

sugar beet = assay: Test E sugar beet; assay type: in vivo, Beta vulgaris; conditions: Postemergence; for Plant response rating, Sugar beet: 0 to 100 scale
Method in brief: as §1

[5] = Rate 125 g/ha, 0 is no effect, 100 is complete control
[6] = Rate 250 g/ha, 0 to 100 scale where 0 is no effect and 100 is complete control
[7] = Rate 500 g/ha, 0 is no effect, 100 is complete control
[8] = Rate 16 g/ha, 0 no injury, 100 complete control
[9] = Rate 32 g/ha, 0 no injury, 100 complete control
[10] = Rate 64 g/ha, 0 no injury, 100 complete control
[11] = Rate 125 g/ha, 0 no injury, 100 complete control
[12] = Rate 125 g/ha, 0 to 100 scale (0 no effect, 100 complete control)
[13] = Rate 500 g/ha, 0 to 100 scale where 0 is no effect and 100 is complete control

Structure (SMILES): CC(C)N(C(=O)n1oc(=O)n(C2CC2)c1=O)c1ccc(F)cc1 [Compound 242]
- Plant response rating, Spring Wheat (spring wheat [1]; Rate 62 g/ha): 15
- Plant response rating, Spring Wheat (spring wheat [1]; [5]): 20
- Spring Wheat plant response rating (spring wheat [1]; [6]): 10
- Plant response rating, Spring Wheat (spring wheat [1]; [7]): 20
- Plant response rating, Johnsongrass (Johnson grass; [8]): 0
- Plant response rating, Johnsongrass (Johnson grass; [9]): 0
- Plant response rating, Johnsongrass (Johnson grass; [10]): 40
- Plant response rating, Johnsongrass (Johnson grass; [11]): 30
- Plant response rating, Johnsongrass (Johnson grass; Rate 250 g/ha): 90
- Plant response rating, Wild buckwheat (wild buckwheat; [12]): 60
- Wild buckwheat plant response rating (0 to 100 scale) (wild buckwheat; Rate 250 g/ha): 70
- Plant response rating, Wild buckwheat (wild buckwheat; [13]): 100
- Plant response rating, Johnsongrass (johnsongrass; Rate 140 g/ha): 45
- Plant response rating, Johnsongrass (johnsongrass; Rate 280 g/ha): 45
- Plant response rating, Johnsongrass (johnsongrass; Rate 560 g/ha): 60
- Plant response rating, Johnsongrass (johnsongrass; Rate 1120 g/ha): 90
- Plant response rating, Bermudagrass (bermuda-grass; [8]): 90
- Plant response rating, Bermudagrass (bermuda-grass; [9]): 100
- Plant response rating, Bermudagrass (bermuda-grass; [10]): 100
- Plant response rating, Bermudagrass (bermuda-grass; [11]): 100
- Plant response rating, Bermudagrass (bermuda-grass; Rate 250 g/ha): 100
- Green foxtail plant response rating (Green foxtail [2]; Rate 64 g/ha): 100
- Green foxtail plant response rating (Green foxtail [2]; Rate 125 g/ha): 100
- Plant response rating, Scentless chamo (scentless chamomile; Rate 62 g/ha): 55
- Plant response rating, Scentless chamo (scentless chamomile; [5]): 40
- Scentless chamo plant response rating (scentless chamomile; [6]): 0
- Plant response rating, Scentless chamo (scentless chamomile; [7]): 20
- Plant response rating Fall panicum (fall panicum; Rate 140 g/ha): 30
- Plant response rating Fall panicum (fall panicum; Rate 280 g/ha): 85
- Plant response rating Fall panicum (fall panicum; Rate 560 g/ha): 90
- Plant response rating Fall panicum (fall panicum; Rate 1120 g/ha): 90
- Plant response rating, Spring Wheat (spring wheat [3]; [12]): 55
- Spring Wheat plant response rating (0 to 100 scale) (spring wheat [3]; Rate 250 g/ha): 60
- Plant response rating, Spring Wheat (spring wheat [3]; [13]): 100
- Plant response rating, Giant foxtail (giant foxtail; Rate 140 g/ha): 40
- Plant response rating, Giant foxtail (giant foxtail; Rate 280 g/ha): 60
- Plant response rating, Giant foxtail (giant foxtail; Rate 560 g/ha): 80
- Plant response rating, Giant foxtail (giant foxtail; Rate 1120 g/ha): 85
- Plant response rating, Green foxtail (Green foxtail [4]; Rate 16 g/ha): 30
- Plant response rating, Green foxtail (Green foxtail [4]; Rate 32 g/ha): 100
- Plant response rating, C. purslane (common pursiane; [8]): 0
- Plant response rating, C. purslane (common pursiane; [9]): 0
- Plant response rating, C. purslane (common pursiane; [10]): 0
- Plant response rating, C. purslane (common pursiane; [11]): 0
- Plant response rating, C. purslane (common pursiane; Rate 250 g/ha): 0
- Deadnettle plant response rating (0 to 100 scale) (deadnettle; Rate 250 g/ha): 70
- Plant response rating, Deadnettle (deadnettle; [13]): 100
- Plant response rating Cotton (cotton; Rate 140 g/ha): 0
- Plant response rating Cotton (cotton; Rate 280 g/ha): 20
- Plant response rating Cotton (cotton; Rate 560 g/ha): 45
- Plant response rating Cotton (cotton; Rate 1120 g/ha): 70
- Plant response rating, Barnyardgrass (barnyardgrass; Rate 140 g/ha): 80
- Plant response rating, Barnyardgrass (barnyardgrass; Rate 280 g/ha): 85
- Plant response rating, Barnyardgrass (barnyardgrass; Rate 560 g/ha): 90
- Plant response rating, Barnyardgrass (barnyardgrass; Rate 1120 g/ha): 95
- Plant response rating, Sugar beet (sugar beet; Rate 62 g/ha): 50
- Plant response rating, Sugar beet (sugar beet; [5]): 50
- Sugar beet plant response rating (sugar beet; [6]): 40
- Plant response rating, Sugar beet (sugar beet; [7]): 30
